Columns and labels:
[1] = target: T1, Recombinant human TYK2 catalytic domain (amino acids 871-1187) (Homo sapiens, UniProt P29597); assay: TYK2 ADPglo kinase assay; type: biochemical; note: 12 µM ATP
T1 construct: catalytic domain (amino acids 871-1187)
T1 sequence (P29597 871-1187): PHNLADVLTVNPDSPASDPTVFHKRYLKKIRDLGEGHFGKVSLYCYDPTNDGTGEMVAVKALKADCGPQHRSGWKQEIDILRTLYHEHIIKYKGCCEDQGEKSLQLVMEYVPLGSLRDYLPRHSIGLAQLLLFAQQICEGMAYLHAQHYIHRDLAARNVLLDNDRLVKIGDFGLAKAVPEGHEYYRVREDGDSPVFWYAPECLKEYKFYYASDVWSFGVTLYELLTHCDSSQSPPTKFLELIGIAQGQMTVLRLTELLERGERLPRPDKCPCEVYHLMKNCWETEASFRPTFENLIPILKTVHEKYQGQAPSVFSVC
Method: After 120 min at room temperature, reactions were stopped and the remaining ATP is depleted by adding 5 μL/well of ADP Glo Reagent (Promega, catalog number V912B). After 40 min at room temperature, 10 μl Kinase Detection Reagent (Kinase Detection Substrate (Promega, catalog number V914B) dissolved in Kinase Detection Buffer (Promega, catalog number V913B)) is added to convert ADP to ATP and to measure this newly synthesized ATP in a luciferase/luciferin reaction. Readout is performed after 30 min incubation at room temperature using the Envision. Kinase activity is calculated by subtracting the relative light units (RLU) obtained in the presence of a positive control inhibitor (10 μM staurosporine) from the RLU obtained in the presence of vehicle. The ability of a test compound to inhibit this activity (or percentage inhibition) is determined as:
RLU test compound=RLU determined for sample with test compound present
RLU control=RLU determined for sample with positive control inhibitor
RLU vehicle=RLU determined in the presence of vehicle
Dose dilution series were prepared for the compounds enabling the testing of dose-response effects in the TYK2 assay and the calculation of the IC50 for the compound. Each compound is routinely tested at concentration of 20 μM followed by a 1/5 serial dilution, 10 points in a final concentration of 1% DMSO. […] The data are expressed as the average IC50 from the assays.

[2] = test system: IL-12 activation of STAT4 in NK-92 cells; assay: IL-12 activation of STAT4 in NK-92 cells using AphaLISA SureFire technology; type: cell-based; settings: Homo sapiens, NK92; IL-12 activation of STAT4 in NK-92 cells, AlphaLISA SureFire; average IC50; read-out: IL12 pSTAT4 IC50
Procedure, shortened: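 NK-92 cells, starved of rhIL-2 overnight, were stimulated with rhIL-12 for 30 min at 37 °C with test compounds, then lysed. Phospho-STAT4 (Tyr693) was read by AlphaLISA SureFire. Percent inhibition versus the vehicle-plus-trigger signal was fitted by sigmoidal nonlinear regression to give IC50, averaged over experiments.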

[3] = test system: IFNα activation of STAT1 in PBMC; assay: IFNα activation of STAT1 in PBMC; type: cell-based; settings: Homo sapiens; IFNα activation of STAT1 in PBMC; average IC50; read-out: IFNα signaling inhibitory potency IC50
Procedure, shortened: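 Human PBMC, with red cells lysed by NH4Cl, were pre-treated with compound for 30 min at 37 °C and 5% CO2. They were then stimulated for 30 min with recombinant human IFNα at 5 ng/mL final.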

[4] = target: T1, Recombinant human TYK2 catalytic domain (amino acids 871-1187); assay: TYK2 radioactive assay polyGT substrate; type: biochemical; note: 0.1 µM ATP
Procedure, shortened: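 Reaction at 30° C. for 120 min, ended with 150 mM phosphoric acid, washed, counted; percent inhibition scaled between vehicle and 10 μM staurosporine cpm.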

[5] = test system: IFNα stimulation, Phospho-STAT1 on CD4+ cells in human whole blood; assay: Human whole blood assay (hWBA), IFNα stimulation; type: cell-based; settings: Universal type I IFN 1000 U/mL, pSTAT1 on CD4+ cells, read-out: IFN α IC50
Method: A flow cytometry analysis is performed to establish JAK1 and TYK2 compound potency ex vivo using human whole blood. Therefore, blood is taken from human volunteers who gave informed consent, then equilibrated for 30 min at 37° C. under gentle rocking and aliquoted in Eppendorf tubes. Compound is added at different concentrations and incubated at 37° C. for 30 min under gentle rocking and subsequently stimulated for 20 min at 37° C. under gentle rocking with interleukin 6 (IL-6) for JAK-dependent pathway stimulation or IFNα for TYK2-dependent pathway stimulation. Phospho-STAT1 is then evaluated using FACS analysis.
The remaining diluted Lyse/Fix buffer is discarded.
A 3-fold dilution series of the compound is prepared in DMSO (10 mM stock solution). Control-treated samples received DMSO instead of compound. All samples are incubated with a 1% final DMSO concentration.
Human blood is collected in heparinized tubes. The blood is divided in aliquots of 148.5 μL. Then, 1.5 μL of the test compound dilution is added to each blood aliquot and the blood samples are incubated for 30 min at 37° C. under gentle rocking. One and a half microliter of 10-fold diluted IL-6 stock solution or Universal type 1 IFN is added to the blood samples (final concentration 10 ng/mL and 1000 U/mL, respectively) and samples are incubated at 37° C. for 20 min under gentle rocking.
At the end of the stimulation period, 3 mL of 1× pre-warmed Lyse/Fix buffer is immediately added to the blood samples, vortexed briefly and incubated for 15 min at 37° C. in a water bath in order to lyse red blood cells and fix leukocytes.
Tubes are centrifuged for 5 min at 400×g at 4° C. The cell pellet is washed with 3 mL of cold 1×PBS, and after centrifugation the cell pellet is resuspended in 100 μL of ice-cold 1×PBS and 900 μL ice-cold 100% MeOH is added. Cells are then incubated at 4° C. for 30 min for permeabilization.
Permeabilized cells are then washed with 1×PBS containing 3% BSA and finally resuspended in 80 μL of 1×PBX containing 3% BSA.
Cells are then washed once with 1×PBS and analyzed on a FACSCanto II flow cytometer (BD Biosciences).
50,000 total events are counted and Phospho-STAT1 positive cells are measured after gating on CD4+ cells, in the lymphocyte gate.

Row | SMILES | IC50 [1] [µM] | IC50 [2] [µM] | IC50 [3] [µM] | IC50 [4] [µM] | IC50 [5] [µM]
1 | Cc1cc(C#N)ncc1Oc1cc(Nc2ccc(N3CCOC(C(C)C)C3)nn2)c2ncn(C)c2n1 (stereo in doubt) [Compound 173, 4-methyl-5-[3-methyl-7-[[6-[(2R)-2-propan-2-ylmorpholin-4-yl]pyridazin-3-yl]amino]imidazo[4,5-b]pyridin-5-yl]oxypyridine-2-carbonitrile] | 0.0013 | 0.033 | 0.114 |  | 
2 | Cc1cc(C#N)ncc1Oc1cc(Nc2ccc(N3CCOC(C(C)C)C3)nn2)c2ncn(C)c2n1 (stereo in doubt) [Compound 177, 4-methyl-5-[3-methyl-7-[[6-[(2S)-2-propan-2-ylmorpholin-4-yl]pyridazin-3-yl]amino]imidazo[4,5-b]pyridin-5-yl]oxypyridine-2-carbonitrile] | 0.0012 | 0.024 | 0.071 |  | 
3 | Cc1cc(C#N)ncc1Oc1cc(Nc2ccc(C(=O)N3CCN(C4CC4)CC3)cn2)c2ncn(C)c2n1 [Compound 48, 5-[7-[[5-(4-cyclopropylpiperazine-1-carbonyl)pyridin-2-yl]amino]-3-methylimidazo[4,5-b]pyridin-5-yl]oxy-4-methylpyridine-2-carbonitrile] | 0.00048 | 0.056 | 0.063 | 0.00084 | 
4 | Cc1cc(C#N)ncc1Oc1cc(Nc2ccc(C(=O)N3CC(C(C)(C)O)C3)cn2)c2ncn(C)c2n1 [Compound 102, 5-[7-[[5-[3-(1-hydroxy-1-methyl-ethyl)azetidine-1-carbonyl]-2-pyridyl]amino]-3-methyl-imidazo[4,5-b]pyridin-5-yl]oxy-4-methyl-pyridine-2-carbonitrile] |  | 0.302 | 0.075 | 0.00198 | 0.175
5 | Cc1cc(C#N)ncc1Oc1cc(Nc2ccc(C(=O)N3CC(N(C)C)C3)cn2)c2ncn(C)c2n1 [Compound 106, 5-[7-[[5-[3-(dimethylamino)azetidine-1-carbonyl]-2-pyridyl]amino]-3-methyl-imidazo[4,5-b]pyridin-5-yl]oxy-4-methyl-pyridine-2-carbonitrile] |  | 0.15 | 0.103 | 0.00143 | 0.533
6 | Cc1cc(C#N)ncc1Oc1cc(Nc2ccc(C(=O)N3CC[C@H](O)C3)cn2)c2ncn(C)c2n1 [Compound 112, 5-[7-[[5-[(3S)-3-hydroxypyrrolidine-1-carbonyl]-2-pyridyl]amino]-3-methyl-imidazo[4,5-b]pyridin-5-yl]oxy-4-methyl-pyridine-2-carbonitrile] |  | 1.1 | 0.13 | 0.00429 | 0.447
7 | Cc1cc(C#N)ncc1Oc1cc(Nc2ccc(N3CCO[C@@H](CO)C3)nn2)c2ncn(C)c2n1 [Compound 163, 5-[7-[[6-[(2R)-2-(hydroxymethyl)morpholin-4-yl]pyridazin-3-yl]amino]-3-methylimidazo[4,5-b]pyridin-5-yl]oxy-4-methylpyridine-2-carbonitrile] | 0.00106 |  |  |  | 
8 | Cc1cc(C#N)ncc1Oc1cc(Nc2ccc(N3CCO[C@H](CO)C3)nn2)c2ncn(C)c2n1 [Compound 165, 5-[7-[[6-[(2S)-2-(hydroxymethyl)morpholin-4-yl]pyridazin-3-yl]amino]-3-methylimidazo[4,5-b]pyridin-5-yl]oxy-4-methylpyridine-2-carbonitrile] | 0.00109 |  |  |  | 
9 | Cc1cc(C#N)ncc1Oc1cc(Nc2ccc(N3CCCOCC3)nn2)c2ncn(C)c2n1 [Compound 167, 4-methyl-5-[3-methyl-7-[[6-(1,4-oxazepan-4-yl)pyridazin-3-yl]amino]imidazo[4,5-b]pyridin-5-yl]oxypyridine-2-carbonitrile] | 0.00255 | 0.088 | 0.129 |  | 
10 | Cc1cc(C#N)ncc1Oc1cc(Nc2ccc(N3CCOC(CO)C3)nn2)c2ncn(C)c2n1 (stereo not drawn) [Compound 169, 5-[7-[[6-[2-(hydroxymethyl)morpholin-4-yl]pyridazin-3-yl]amino]-3-methylimidazo[4,5-b]pyridin-5-yl]oxy-4-methylpyridine-2-carbonitrile] | 0.00147 | 0.665 | 0.147 |  | 
11 | Cc1cc(C#N)ncc1Oc1cc(Nc2ccc(N3CC4CCC(C3)O4)nn2)c2ncn(C)c2n1 [Compound 170, 4-methyl-5-[3-methyl-7-[[6-(8-oxa-3-azabicyclo[3.2.1]octan-3-yl)pyridazin-3-yl]amino]imidazo[4,5-b]pyridin-5-yl]oxypyridine-2-carbonitrile] | 0.00146 | 0.073 | 0.083 |  | 
12 | Cc1cc(C#N)ncc1Oc1cc(Nc2ccc(N3CCOC(C#N)C3)nn2)c2ncn(C)c2n1 (stereo not drawn) [Compound 171, 4-[6-[[5-(6-cyano-4-methylpyridin-3-yl)oxy-3-methylimidazo[4,5-b]pyridin-7-yl]amino]pyridazin-3-yl]morpholine-2-carbonitrile] | 0.00088 | 0.127 | 0.045 |  | 
13 | Cc1cc(C#N)ncc1Oc1cc(Nc2ccc(N3CCO[C@H](C)C3)nn2)c2ncn(C)c2n1 [Compound 172, 4-methyl-5-[3-methyl-7-[[6-[(2R)-2-methylmorpholin-4-yl]pyridazin-3-yl]amino]imidazo[4,5-b]pyridin-5-yl]oxypyridine-2-carbonitrile] | 0.00092 | 0.058 | 0.066 |  | 
14 | Cc1cc(C#N)ncc1Oc1cc(Nc2ccc(N3C[C@@H]4C[C@H]3CO4)nn2)c2ncn(C)c2n1 [Compound 174, 4-methyl-5-[3-methyl-7-[[6-[(1S,4S)-2-oxa-5-azabicyclo[2.2.1]heptan-5-yl]pyridazin-3-yl]amino]imidazo[4,5-b]pyridin-5-yl]oxypyridine-2-carbonitrile] | 0.00103 | 0.061 | 0.072 |  | 
15 | Cc1cc(C#N)ncc1Oc1cc(Nc2ccc(N3CCOC(C)(C)C3)nn2)c2ncn(C)c2n1 [Compound 175, 5-[7-[[6-(2,2-dimethylmorpholin-4-yl)pyridazin-3-yl]amino]-3-methylimidazo[4,5-b]pyridin-5-yl]oxy-4-methylpyridine-2-carbonitrile] | 0.00264 | 0.137 | 0.094 |  | 
